{
  "source": "ChEMBL document CHEMBL5614443",
  "about": "“Hybrids of 3-Hydroxypyridin-4(1H)-ones and Long-Chain 4-Aminoquinolines as Potent Biofilm Inhibitors of Pseudomonas aeruginosa Potentiate Tobramycin and Polymyxin B Activity” (J Med Chem, 2024)",
  "key": {"[1]": {"test": "Inhibition of quorum sensing system in wildtype Pseudomonas aeruginosa PAO1 assessed as inhibition of elastase production incubated for 24 hrs by elastin-congo red dye based absorbance assay"}, "[2]": {"tested_on": "Pseudomonas aeruginosa", "test": "Antibiofilm activity against Pseudomonas aeruginosa overexpressing fpvA assessed as inhibition of biofilm formation at 20 uM incubated for 24 hrs by crystal violet staining based analysis relative to control", "assay_type": "functional"}, "[3]": {"tested_on": "Pseudomonas aeruginosa", "test": "Inhibition of motility in Pseudomonas aeruginosa PAO1 assessed as reduction in swarming movements incubated for 16 hrs by motility assay", "assay_type": "functional, organism-based", "settings": "dose 1.25-50 µM"}, "[4]": {"tested_on": "Pseudomonas aeruginosa", "test": "Inhibition of motility in Pseudomonas aeruginosa PAO1 assessed as reduction in swimming movements incubated for 16 hrs by motility assay", "assay_type": "functional, organism-based", "settings": "dose 1.25-50 µM"}, "[5]": {"tested_on": "Pseudomonas aeruginosa", "test": "Inhibition of motility in Pseudomonas aeruginosa PAO1 assessed as reduction in twitching movements at 50 uM incubated for 16 hrs by motility assay", "assay_type": "functional, organism-based"}, "[6]": {"tested_on": "Pseudomonas aeruginosa", "test": "Antibacterial activity against Pseudomonas aeruginosa clinical isolate 0617 assessed as inhibition of bacterial growth incubated for 24 hrs by CLSI protocol based method", "assay_type": "functional, organism-based"}, "[7]": {"tested_on": "Pseudomonas aeruginosa", "test": "Antibacterial activity against Pseudomonas aeruginosa clinical isolate 1129 assessed as inhibition of bacterial growth incubated for 24 hrs by CLSI protocol based method", "assay_type": "functional, organism-based"}, "[8]": {"tested_on": "Pseudomonas aeruginosa", "test": "Antibacterial activity against Pseudomonas aeruginosa clinical isolate 1167 assessed as inhibition of bacterial growth incubated for 24 hrs by CLSI protocol based method", "assay_type": "functional, organism-based"}, "[9]": {"tested_on": "Pseudomonas aeruginosa", "test": "Antibacterial activity against Pseudomonas aeruginosa clinical isolate 1031 assessed as inhibition of bacterial growth incubated for 24 hrs by CLSI protocol based method", "assay_type": "functional, organism-based"}, "[10]": {"tested_on": "Pseudomonas aeruginosa", "test": "Antibacterial activity against Pseudomonas aeruginosa clinical isolate 1065 assessed as inhibition of bacterial growth incubated for 24 hrs by CLSI protocol based method", "assay_type": "functional, organism-based"}, "[11]": {"tested_on": "Pseudomonas aeruginosa", "test": "Antibacterial activity against Pseudomonas aeruginosa clinical isolate 1074 assessed as inhibition of bacterial growth incubated for 24 hrs by CLSI protocol based method", "assay_type": "functional, organism-based"}, "[12]": {"tested_on": "Pseudomonas aeruginosa", "test": "Antivirulence activity in Pseudomonas aeruginosa clinical isolate 1121 assessed as reduction in rhamnolipid production at 10 uM incubated for 24 hrs by absorbance based microtiter plate reader analysis", "assay_type": "functional, organism-based"}, "[13]": {"tested_on": "Pseudomonas aeruginosa", "test": "Synergistic antibacterial activity against Pseudomonas aeruginosa PAO1 assessed as reduction in cell viability at 10 to 50 uM incubated for 24 hrs in the presence of 1/4 MIC of tobramycin by LB agar plate method", "assay_type": "functional, organism-based", "settings": "dose 10-50 µM"}, "[14]": {"tested_on": "Pseudomonas aeruginosa", "test": "Synergistic antibacterial activity against Pseudomonas aeruginosa PAO1 assessed as reduction in cell viability at 10 to 50 uM incubated for 24 hrs in the presence of 1/8 MIC of tobramycin by LB agar plate method", "assay_type": "functional, organism-based", "settings": "dose 10-50 µM"}, "[15]": {"tested_on": "Pseudomonas aeruginosa", "test": "Synergistic antibacterial activity against Pseudomonas aeruginosa PAO1 assessed as reduction in cell viability at 10 to 50 uM incubated for 24 hrs in the presence of 1/2 MIC of polymyxin B by LB agar plate method", "assay_type": "functional, organism-based", "settings": "dose 10-50 µM"}, "[16]": {"tested_on": "Pseudomonas aeruginosa", "test": "Antibacterial activity against Pseudomonas aeruginosa PAO1 assessed as bacterial survival rate at 10 to 50 uM incubated for 24 hrs by LB agar plate method relative to control", "assay_type": "functional", "settings": "dose 10-50 µM"}, "[17]": {"tested_on": "Pseudomonas aeruginosa", "test": "Synergistic antibacterial activity against Pseudomonas aeruginosa PAO1 assessed as fold reduction in bacterial survival rate incubated for 24 hrs in presence of azithromycin by LB agar plate method", "assay_type": "functional"}, "[18]": {"tested_on": "Pseudomonas aeruginosa", "test": "Synergistic antibacterial activity against Pseudomonas aeruginosa PAO1 assessed as fold reduction in bacterial survival rate incubated for 24 hrs in presence of tetracycline by LB agar plate method", "assay_type": "functional"}, "[19]": {"tested_on": "Pseudomonas aeruginosa", "test": "Synergistic antibacterial activity against Pseudomonas aeruginosa clinical isolate 0815 assessed as reduction in bacterial viability at 10 to 50 uM incubated for 24 hrs in presence of 1/8 MIC of tobramycin by LB agar plate method", "assay_type": "functional, organism-based", "settings": "dose 10-50 µM"}, "[20]": {"tested_on": "Pseudomonas aeruginosa", "test": "Synergistic antibacterial activity against Pseudomonas aeruginosa clinical isolate 1167 assessed as reduction in bacterial viability at 10 to 50 uM incubated for 24 hrs in presence of 1/2 MIC of tobramycin by LB agar plate method", "assay_type": "functional, organism-based", "settings": "dose 10-50 µM"}, "[21]": {"tested_on": "Pseudomonas aeruginosa", "test": "Synergistic antibacterial activity against Pseudomonas aeruginosa clinical isolate 1121 assessed as reduction in bacterial viability at 10 to 50 uM incubated for 24 hrs in presence of 1/2 MIC of tobramycin by LB agar plate method", "assay_type": "functional, organism-based", "settings": "dose 10-50 µM"}, "[22]": {"tested_on": "Pseudomonas aeruginosa", "test": "Synergistic antibacterial activity against Pseudomonas aeruginosa clinical isolate 1121 assessed as reduction in bacterial viability at 10 to 50 uM incubated for 24 hrs in presence of 1/8 MIC of tobramycin by LB agar plate method", "assay_type": "functional, organism-based", "settings": "dose 10-50 µM"}, "[23]": {"tested_on": "Pseudomonas aeruginosa", "test": "Synergistic antibacterial activity against Pseudomonas aeruginosa clinical isolate 0815 assessed as reduction in bacterial viability at 10 to 50 uM incubated for 24 hrs in presence of 1/4 MIC of polymyxin B by LB agar plate method", "assay_type": "functional, organism-based", "settings": "dose 10-50 µM"}, "[24]": {"tested_on": "Pseudomonas aeruginosa", "test": "Synergistic antibacterial activity against Pseudomonas aeruginosa clinical isolate 0815 assessed as reduction in bacterial viability at 10 to 50 uM incubated for 24 hrs in presence of 1/8 MIC of polymyxin B by LB agar plate method", "assay_type": "functional, organism-based", "settings": "dose 10-50 µM"}, "[25]": {"tested_on": "Pseudomonas aeruginosa", "test": "Synergistic antibacterial activity against Pseudomonas aeruginosa clinical isolate 1167 assessed as reduction in bacterial viability at 10 to 50 uM incubated for 24 hrs in presence of 1/2 MIC of polymyxin B by LB agar plate method", "assay_type": "functional, organism-based", "settings": "dose 10-50 µM"}, "[26]": {"tested_on": "Pseudomonas aeruginosa", "test": "Synergistic antibacterial activity against Pseudomonas aeruginosa clinical isolate 1167 assessed as reduction in bacterial viability at 10 to 50 uM incubated for 24 hrs in presence of 1/4 MIC of polymyxin B by LB agar plate method", "assay_type": "functional, organism-based", "settings": "dose 10-50 µM"}, "[27]": {"tested_on": "Pseudomonas aeruginosa", "test": "Synergistic antibacterial activity against Pseudomonas aeruginosa clinical isolate 1121 assessed as fold reduction in bacterial viability at 50 uM incubated for 24 hrs in presence of 1/2 MIC of polymyxin B by LB agar plate method relative to polymyxin B alone", "assay_type": "functional"}, "[28]": {"test": "Cytotoxicity against African green monkey Vero cells assessed as reduction in cell viability incubated for 24 hrs by MTT assay", "assay_type": "toxicity, cell-based", "settings": "chlorocebus sabaeus"}, "[29]": {"test": "Toxicity in Caenorhabditis elegans assessed as effect on survival upto 200 uM incubated for 72 hrs by bright-field microscopic analysis"}, "[30]": {"tested_on": "Pseudomonas aeruginosa", "test": "Antibacterial activity against Pseudomonas aeruginosa PAO1 infected in Caenorhabditis elegans assessed as worm survival at 10 uM by bright-field microscopic analysis (reference value: 24 hrs)", "assay_type": "functional"}, "[31]": {"tested_on": "Pseudomonas aeruginosa", "test": "Antibacterial activity against Pseudomonas aeruginosa PAO1 infected in Caenorhabditis elegans assessed as worm survival at 50 uM by bright-field microscopic analysis (reference value: 24 hrs)", "assay_type": "functional"}, "[32]": {"tested_on": "Pseudomonas aeruginosa", "test": "Antibacterial activity against Pseudomonas aeruginosa PAO1 infected in Caenorhabditis elegans assessed as worm survival rate at 10 uM measured after 72 hrs in presence of tobramycin at 1/2 MIC by bright field microscopic analysis relative to control", "assay_type": "functional"}, "[33]": {"tested_on": "Pseudomonas aeruginosa", "test": "Antibacterial activity against Pseudomonas aeruginosa PAO1 infected in Caenorhabditis elegans assessed as worm survival rate at 50 uM measured after 96 hrs in presence of polymyxin B at 1/2 MIC by bright field microscopic analysis relative to control", "assay_type": "functional"}, "[34]": {"tested_on": "Pseudomonas aeruginosa", "test": "Induction of Fe3+ chelating activity in Pseudomonas aeruginosa PAO1 assessed as increase in pyochelin production at 2.5 to 50 uM incubated for 24 hrs by fluorescence microplate reader", "settings": "dose 2.5-50 µM"}, "[35]": {"tested_on": "Pseudomonas aeruginosa", "test": "Induction of Fe3+ chelating activity in Pseudomonas aeruginosa PAO1 assessed as increase in pyochelin production by measuring fold change at 50 uM incubated for 24 hrs by fluorescence microplate reader"}},
  "note": "The source made the active and inactive calls. The rule behind the calls is not given here.",
  "data": [
    {"smiles": "Cc1cc(=O)c(O)c(C(=O)NCCCCCCCCNc2ccnc3cc(Cl)ccc23)n1C.Cl", "values": [
      {"measurement": "IC50", "setting": "[1]", "value": 16.7, "unit": "µM"},
      {"measurement": "inhibition at 20 µM", "setting": "[2]", "value": "~30", "unit": "%"},
      {"measurement": "inhibition", "setting": "[3]", "value": "Dose-Dependent Effect"},
      {"measurement": "inhibition", "setting": "[4]", "value": "Dose-Dependent Effect"},
      {"measurement": "inhibition", "setting": "[5]", "value": "Active"},
      {"measurement": "Activity", "setting": "[6]", "value": "inactive"},
      {"measurement": "Activity", "setting": "[7]", "value": "inactive"},
      {"measurement": "Activity", "setting": "[8]", "value": "inactive"},
      {"measurement": "Activity", "setting": "[9]", "value": "inactive"},
      {"measurement": "Activity", "setting": "[10]", "value": "inactive"},
      {"measurement": "Activity", "setting": "[11]", "value": "inactive"},
      {"measurement": "Activity", "setting": "[12]", "value": "Active"},
      {"measurement": "Activity", "setting": "[13]", "value": "Active"},
      {"measurement": "Activity", "setting": "[14]", "value": "Active"},
      {"measurement": "Activity", "setting": "[15]", "value": "Active"},
      {"measurement": "Survival", "setting": "[16]", "value": "~100", "unit": "%"},
      {"measurement": "fold change (FC)", "setting": "[17]", "value": "<10"},
      {"measurement": "fold change (FC)", "setting": "[18]", "value": "<10"},
      {"measurement": "Activity", "setting": "[19]", "value": "Active"},
      {"measurement": "Activity", "setting": "[20]", "value": "Active"},
      {"measurement": "Activity", "setting": "[21]", "value": "Active"},
      {"measurement": "Activity", "setting": "[22]", "value": "Active"},
      {"measurement": "Activity", "setting": "[23]", "value": "Active"},
      {"measurement": "Activity", "setting": "[24]", "value": "Active"},
      {"measurement": "Activity", "setting": "[25]", "value": "Active"},
      {"measurement": "Activity", "setting": "[26]", "value": "Active"},
      {"measurement": "fold change (FC)", "setting": "[27]", "value": 15},
      {"measurement": "CC50 at 24 h", "setting": "[28]", "value": "> 800", "unit": "µM"},
      {"measurement": "Activity", "setting": "[29]", "value": "Non-Toxic"},
      {"measurement": "Survival", "setting": "[30]", "value": 32, "unit": "h"},
      {"measurement": "Survival", "setting": "[31]", "value": 56, "unit": "h"},
      {"measurement": "survival at 10 µM", "setting": "[32]", "value": 28.4, "unit": "%"},
      {"measurement": "survival at 50 µM", "setting": "[33]", "value": 91.2, "unit": "%"},
      {"measurement": "Activity", "setting": "[34]", "value": "inactive"},
      {"measurement": "fold change (FC)", "setting": "[35]", "value": 2}
    ]}
  ]
}
